How the values were obtained:
Test in all cases: relative viability (nuclei count vs DMSO), 5 days (fraction); higher = more cells survive
[1] = compound: CO[C@H]1C[C@@H]2CC[C@@H](C)[C@@](O)(O2)C(=O)C(=O)N2CCCC[C@H]2C(=O)O[C@H]([C@H](C)C[C@@H]2CC[C@@H](OCCO)[C@H](OC)C2)CC(=O)[C@H](C)/C=C(\C)[C@@H](O)[C@@H](OC)C(=O)[C@H](C)C[C@H](C)/C=C/C=C/C=C/1C [Everolimus] + COc1cc2c(Oc3ccc(NC(=O)C4(C(=O)Nc5ccc(F)cc5)CC4)cc3F)ccnc2cc1OCCCN1CCOCC1 [Foretinib] (partner 0.25 µM)
Procedure, shortened: (§1)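 Lung cancer cell lines were pin-tool dosed in 1536-well plates on the day after seeding, with either a lone drug or a fixed anchor-drug dose plus five library-drug doses (not always all listed) in √10 steps. Nuclei were counted on 4× images after 5 days. Relative viability is the ratio of treated-well to vehicle-well nuclei counts, with each value a median of duplicate plates.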

[2] = compound: CO[C@H]1C[C@@H]2CC[C@@H](C)[C@@](O)(O2)C(=O)C(=O)N2CCCC[C@H]2C(=O)O[C@H]([C@H](C)C[C@@H]2CC[C@@H](OCCO)[C@H](OC)C2)CC(=O)[C@H](C)/C=C(\C)[C@@H](O)[C@@H](OC)C(=O)[C@H](C)C[C@H](C)/C=C/C=C/C=C/1C [Everolimus] + COc1cccc2cc(-c3nc([C@H]4CC[C@H](C(=O)O)CC4)n4ncnc(N)c34)[nH]c12 [OSI-027] (partner 0.5 µM)
Procedure, shortened: as §1

[3] = compound: CO[C@H]1C[C@@H]2CC[C@@H](C)[C@@](O)(O2)C(=O)C(=O)N2CCCC[C@H]2C(=O)O[C@H]([C@H](C)C[C@@H]2CC[C@@H](OCCO)[C@H](OC)C2)CC(=O)[C@H](C)/C=C(\C)[C@@H](O)[C@@H](OC)C(=O)[C@H](C)C[C@H](C)/C=C/C=C/C=C/1C [Everolimus] + NC(=O)Nc1cc(-c2cccc(F)c2)sc1C(=O)N[C@H]1CCCNC1 [AZD7762] (partner 0.2 µM)
Procedure, shortened: as §1

[4] = compound: CO[C@H]1C[C@@H]2CC[C@@H](C)[C@@](O)(O2)C(=O)C(=O)N2CCCC[C@H]2C(=O)O[C@H]([C@H](C)C[C@@H]2CC[C@@H](OCCO)[C@H](OC)C2)CC(=O)[C@H](C)/C=C(\C)[C@@H](O)[C@@H](OC)C(=O)[C@H](C)C[C@H](C)/C=C/C=C/C=C/1C [Everolimus] + Nc1nc2[nH]cc(CCc3ccc(C(=O)N[C@@H](CCC(=O)O)C(=O)O)cc3)c2c(=O)[nH]1 [Pemetrexed] (partner 0.2 µM)
Procedure, shortened: as §1

Cell Line | relative viability ([1]; first compound 0.01 µM) | relative viability ([1]; first compound 0.03162 µM) | relative viability ([1]; first compound 0.1 µM) | relative viability ([1]; first compound 0.3162 µM) | relative viability ([1]; first compound 1 µM) | relative viability ([2]; first compound 0.01 µM) | relative viability ([2]; first compound 0.03162 µM) | relative viability ([2]; first compound 0.1 µM) | relative viability ([2]; first compound 0.3162 µM) | relative viability ([2]; first compound 1 µM) | relative viability ([3]; first compound 0.01 µM) | relative viability ([3]; first compound 0.03162 µM) | relative viability ([3]; first compound 0.1 µM) | relative viability ([3]; first compound 0.3162 µM) | relative viability ([3]; first compound 1 µM) | relative viability ([4]; first compound 0.01 µM) | relative viability ([4]; first compound 0.03162 µM) | relative viability ([4]; first compound 0.1 µM) | relative viability ([4]; first compound 0.3162 µM) | relative viability ([4]; first compound 1 µM)
CAL-12T | 0.628 | 0.686 | 0.651 | 0.792 | 0.821 | 0.221 | 0.299 | 0.25 | 0.309 | 0.296 | 0.62 | 0.529 | 0.497 | 0.446 | 0.644 | 0.572 | 0.58 | 0.664 | 0.653 | 0.627
EPLC-272H | 0.451 | 0.414 | 0.443 | 0.417 | 0.489 | 0.206 | 0.204 | 0.203 | 0.24 | 0.253 | 0.133 | 0.229 | 0.172 | 0.172 | 0.222 | 0.343 | 0.317 | 0.397 | 0.313 | 0.315
LCLC-103H | 0.597 | 0.572 | 0.522 | 0.545 | 0.574 | 0.347 | 0.385 | 0.402 | 0.367 | 0.366 | 0.561 | 0.671 | 0.629 | 0.673 | 0.608 | 0.43 | 0.453 | 0.472 | 0.45 | 0.438
NCI-H2405 | 0.973 | 0.857 | 0.763 | 0.809 | 0.781 | 0.505 | 0.474 | 0.532 | 0.459 | 0.488 | 0.655 | 0.652 | 0.657 | 0.637 | 0.662 | 0.796 | 0.825 | 0.671 | 0.726 | 0.825
HCC-15 | 1.15 | 1.03 | 1.01 | 0.964 | 0.985 | 0.502 | 0.517 | 0.447 | 0.543 | 0.546 | 1.37 | 1.26 | 1.33 | 1.24 | 1.48 | 0.222 | 0.273 | 0.23 | 0.231 | 0.222
PC-3 [JPC-3] | 1.16 | 1.13 | 0.994 | 0.985 | 0.987 | 0.7 | 0.602 | 0.588 | 0.512 | 0.631 | 0.58 | 0.499 | 0.615 | – | 0.647 | 0.988 | 0.9 | 0.72 | – | 1.07
NCI-H1944 | 0.572 | 0.583 | 0.608 | 0.629 | 0.658 | 0.365 | 0.305 | 0.294 | 0.358 | 0.326 | 0.341 | 0.437 | 0.354 | 0.325 | 0.306 | 0.497 | 0.545 | 0.393 | 0.489 | 0.404
HARA | 0.754 | 0.847 | – | 0.793 | 0.845 | 0.277 | 0.345 | – | 0.282 | 0.336 | 0.15 | 0.335 | 0.223 | 0.309 | 0.252 | 0.294 | 0.245 | 0.26 | 0.238 | 0.202
NCI-H2126 | 0.97 | 0.925 | 0.892 | 0.772 | 0.73 | 0.528 | 0.431 | 0.414 | 0.475 | 0.426 | 0.688 | 0.598 | 0.629 | 0.688 | 0.703 | 0.531 | 0.522 | 0.497 | 0.561 | 0.535
LXF-289 | 1.03 | 1 | 0.936 | 0.99 | 1 | 0.654 | 0.604 | 0.529 | 0.572 | 0.576 | 1.18 | 1.28 | 1.17 | 1.12 | 1.24 | 1.09 | 1.07 | 0.823 | 1.12 | 1.02
NCI-H460 | 1.01 | 1.01 | 0.969 | 0.942 | 1.11 | 0.389 | 0.503 | 0.304 | 0.314 | 0.333 | 0.669 | 0.658 | 0.657 | 0.465 | 0.431 | 0.058 | 0.0669 | 0.0635 | 0.0608 | 0.072
NCI-H1395 | 0.901 | 0.683 | 0.727 | 0.617 | 0.627 | 0.596 | 0.555 | 0.544 | 0.482 | 0.54 | 0.394 | 0.374 | 0.335 | 0.405 | 0.339 | 0.595 | 0.571 | 0.693 | 0.693 | 0.7
NCI-H2170 | 0.635 | 0.641 | 0.654 | 0.587 | 0.614 | 0.464 | 0.338 | 0.481 | 0.422 | 0.421 | 0.367 | 0.403 | 0.334 | 0.374 | 0.401 | 0.259 | 0.26 | 0.248 | 0.271 | 0.257

Source: the supplement of paper PMC10307832
